# According to paper PMC6498869, “Structural and mutational analyses of psychrophilic and mesophilic adenylate kinases highlight the role of hydrophobic interactions in protein thermal stability” (Structural Dynamics, 2019):
# Key:
# Experiment in all cases: ATP formation, hexokinase/G6PDH end-point assay
# Format in all cases: biochemical
# Conditions in all cases: 2.5 mM ADP, 2 mM MgCl2, 100 mM KCl, HEPES pH 7.4, 5-65 °C
# AKm [1] = target: T1, AKm (Bacillus subtilis, UniProt P16304, I26T)
# T1 construct: gene adk; full length (residues 1-217), pET11a, E. coli BL21 (DE3); Affi-Gel blue and size exclusion, no tag mentioned
# AKm [2] = target: T2, AKm (Bacillus subtilis, UniProt P16304)
# T2 construct: gene adk; full length (residues 1-217), pET11a, E. coli BL21 (DE3); Affi-Gel blue and size exclusion, no tag mentioned
# AKp [3] = target: T3, AKp (Sporosarcina globispora, UniProt P84139)
# T3 construct: gene adk; full length (residues 1-217), pET30a, E. coli BL21 (DE3); Affi-Gel blue and size exclusion, no tag mentioned
# AKp [4] = target: T4, AKp (Sporosarcina globispora, UniProt P84139, T26I)
# T4 construct: gene adk; full length (residues 1-217), pET30a, E. coli BL21 (DE3); Affi-Gel blue and size exclusion, no tag mentioned
# T4 sequence (P84139 whole entry T26I, the tested form may be a part): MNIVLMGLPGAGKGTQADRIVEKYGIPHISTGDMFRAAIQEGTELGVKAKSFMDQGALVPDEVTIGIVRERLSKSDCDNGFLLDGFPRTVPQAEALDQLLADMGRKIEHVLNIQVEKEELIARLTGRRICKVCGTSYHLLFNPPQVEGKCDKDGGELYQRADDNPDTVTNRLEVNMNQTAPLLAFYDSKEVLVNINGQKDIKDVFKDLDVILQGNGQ
# T3 sequence (P84139 whole entry, the tested form may be a part): as the sequence (P84139 whole entry T26I, the tested form may be a part) above, with I26T counted along it
# T1 sequence (P16304 whole entry I26T, the tested form may be a part): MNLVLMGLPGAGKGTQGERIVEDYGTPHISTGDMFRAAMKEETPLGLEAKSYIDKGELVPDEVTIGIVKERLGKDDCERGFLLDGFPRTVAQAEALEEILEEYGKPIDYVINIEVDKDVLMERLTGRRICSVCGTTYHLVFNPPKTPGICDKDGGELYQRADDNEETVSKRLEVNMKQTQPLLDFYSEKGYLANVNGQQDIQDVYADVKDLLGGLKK
# T2 sequence (P16304 whole entry, the tested form may be a part): as the sequence (P16304 whole entry I26T, the tested form may be a part) above, with T26I counted along it
smiles,measurement,setting,value
Nc1ncnc2c1ncn2[C@@H]1O[C@H](COP(=O)(O)OP(=O)(O)O)[C@@H](O)[C@H]1O [ADP],"ATP formation, hexokinase/G6PDH end-point assay",AKm [1],The activity assays of WT AKm and the I26T mutant also showed consistent results
same,"ATP formation, hexokinase/G6PDH end-point assay",AKm [2],The activity assays of WT AKm and the I26T mutant also showed consistent results
same,"ATP formation, hexokinase/G6PDH end-point assay",AKp [3],we determined the temperature dependence of the activities of WT AKp and its T26I mutant
same,"ATP formation, hexokinase/G6PDH end-point assay",AKp [4],we determined the temperature dependence of the activities of WT AKp and its T26I mutant
